Values quoted from earlier work in patent US7666887B2, “Stable, neutral pH, VOC-free biocidal compositions of 1,2-benzisothiazolin-3-one” (ISP Investments, Inc., priority 2004, dated 2010).

Columns and labels:
[1] = in some individuals

SMILES: O=c1[nH]sc2ccccc12 [BIT, 1,2-benzisothiazolin-3-one]
- aqueous solubility: low
- sensitization [1]: can cause sensitization
